Measured values taken from the supplement of paper PMC7017272.
± gives the standard deviation of the averaged measurements.

Experiments:
UT-SCC-24A [1] = assay: maximal % inhibition of viability relative to DMSO; higher = stronger effect; details: treatment time: 3 days
Protocol: (§1)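 HNSCC cell lines (500 cells/well, 384-well) were cultured on plastic, on top of (2D) or embedded (3D) in Matrigel or human leiomyoma matrix Myogel (500 ug/mL; Myogel 3D mixed with rat collagen I). Cells were treated for 3 days with 5 ten-fold concentrations of each drug, and viability was read by CellTiter-Glo. Viability was normalised to DMSO (0% inhibition) and 100 uM benzethonium chloride (100% inhibition) controls and fitted with the FIMM DSRT pipeline to give IC50 (nM), maximal % inhibition and the drug sensitivity score (DSS). Suffixes _1/_2/_3 on drug names are replicates.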

UT-SCC-106A [2] = assay: drug sensitivity score (DSS); higher = more sensitive; extreme values may be limits of the assay; details: treatment time: 3 days
Outline: (§2)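 The FIMM pipeline was used to fit percent-inhibition dose–response curves, giving IC50, maximal inhibition and drug sensitivity score. Input data were CellTiter-Glo 2.0 luminescence readings, normalised to vehicle (0.1% DMSO) and cell-killing control wells, from HPV-negative HNSCC cell lines seeded at 500 cells/well in 384-well plates. Cells sat on plastic, on Matrigel or Myogel coatings (500 µg/mL), or within Matrigel or Myogel plus rat collagen I, and received compounds at five 10-fold concentrations for 3 days.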

UT-SCC-14 [3] = assay: as above; details: treatment time: 3 days
Outline: as §2

UT-SCC-24B = assay: as above; details: treatment time: 3 days
Outline: as §2

UT-SCC-28 = assay: as above; details: treatment time: 3 days
Outline: as §2

UT-SCC-40 = assay: as above; details: treatment time: 3 days
Outline: as §2

UT-SCC-42A [4] = assay: as above; details: treatment time: 3 days
Outline: as §2

UT-SCC-42B [5] = assay: as above; details: treatment time: 3 days
Outline: as §2

UT-SCC-44 [6] = assay: as above; details: treatment time: 3 days
Outline: as §2

UT-SCC-73 [7] = assay: as above; details: treatment time: 3 days
Outline: as §2

UT-SCC-81 = assay: as above; details: treatment time: 3 days
Outline: as §2

UT-SCC-8 [8] = assay: as above; details: treatment time: 3 days
Outline: as §2

UT-SCC-106A [9] = assay: relative IC50 (midpoint of the fitted curve; maximal inhibition may be below 50%); higher = less potent; details: treatment time: 3 days
Outline: as §2

UT-SCC-14 [10] = assay: as above; details: treatment time: 3 days
Outline: as §2

UT-SCC-42A [11] = assay: as above; details: culture condition: on top of Matrigel; treatment time: 3 days
Outline: as §2

UT-SCC-42B [12] = assay: as above; details: treatment time: 3 days
Outline: as §2

UT-SCC-44 [13] = assay: as above; details: treatment time: 3 days
Outline: as §2

UT-SCC-73 [14] = assay: as above; details: treatment time: 3 days
Outline: as §2

UT-SCC-8 [15] = assay: as above; details: culture condition: embedded in Matrigel; treatment time: 3 days
Outline: as §2

UT-SCC-24A [16] = assay: relative IC50 (midpoint of the fitted curve; maximal inhibition may be below 50%); higher = less potent; details: treatment time: 3 days
Protocol: as §1

[17] = culture condition: embedded in Matrigel
[18] = culture condition: embedded in Myogel + collagen I
[19] = culture condition: on top of Matrigel
[20] = culture condition: on top of Myogel
[21] = culture condition: plastic 2D (no matrix)

What does the source list for CC(=O)Nc1cccc(-n2c(=O)n(C3CC3)c(=O)c3c(Nc4ccc(I)cc4F)n(C)c(=O)c(C)c32)c1 [Trametinib]?
maximal % inhibition of viability (UT-SCC-24A [1]; [17]): 74.7 ± 4%; maximal % inhibition of viability (UT-SCC-24A [1]; [18]): 48.6 ± 6.4%; maximal % inhibition of viability (UT-SCC-24A [1]; [19]): 69.5 ± 5.2%; maximal % inhibition of viability (UT-SCC-24A [1]; [20]): 33.1 ± 9.5%; maximal % inhibition of viability (UT-SCC-24A [1]; [21]): 62.4 ± 10%; drug sensitivity score (UT-SCC-106A [2]; [17]): 15.3 ± 2.4 DSS; drug sensitivity score (UT-SCC-106A [2]; [18]): 0.6 ± 0.6 DSS; drug sensitivity score (UT-SCC-106A [2]; [19]): 16.9 ± 1.2 DSS; drug sensitivity score (UT-SCC-106A [2]; [20]): 3.1 ± 2.4 DSS; drug sensitivity score (UT-SCC-106A [2]; [21]): 17.3 ± 0.72 DSS; drug sensitivity score (UT-SCC-14 [3]; [17]): 9.3 ± 2.1 DSS; drug sensitivity score (UT-SCC-14 [3]; [18]): 6.63 ± 3.8 DSS; drug sensitivity score (UT-SCC-14 [3]; [19]): 6.5 ± 3.7 DSS; drug sensitivity score (UT-SCC-14 [3]; [20]): 3.43 ± 1.8 DSS; drug sensitivity score (UT-SCC-14 [3]; [21]): 2.23 ± 1.9 DSS; drug sensitivity score (UT-SCC-24B; [17]): 11 ± 1 DSS; drug sensitivity score (UT-SCC-24B; [18]): 10.3 ± 2.3 DSS; drug sensitivity score (UT-SCC-24B; [19]): 10.1 ± 1.1 DSS; drug sensitivity score (UT-SCC-24B; [20]): 6.67 ± 1.4 DSS; drug sensitivity score (UT-SCC-24B; [21]): 13.8 ± 0.95 DSS; drug sensitivity score (UT-SCC-28; [17]): 5.9 ± 1.1 DSS; drug sensitivity score (UT-SCC-28; [18]): 3.83 ± 3.9 DSS; drug sensitivity score (UT-SCC-28; [19]): 7.33 ± 3.5 DSS; drug sensitivity score (UT-SCC-28; [21]): 4.33 ± 1.3 DSS; drug sensitivity score (UT-SCC-40; [17]): 18.4 ± 4.2 DSS; drug sensitivity score (UT-SCC-40; [18]): 13.4 ± 2.6 DSS; drug sensitivity score (UT-SCC-40; [19]): 15.7 ± 2.8 DSS; drug sensitivity score (UT-SCC-40; [20]): 10.9 ± 1.8 DSS; drug sensitivity score (UT-SCC-40; [21]): 11.3 ± 3.5 DSS; drug sensitivity score (UT-SCC-42A [4]; [17]): 7.6 ± 5.4 DSS; drug sensitivity score (UT-SCC-42A [4]; [18]): 2.57 ± 2.8 DSS; drug sensitivity score (UT-SCC-42A [4]; [19]): 10.5 ± 0.9 DSS; drug sensitivity score (UT-SCC-42A [4]; [20]): 6.97 ± 0.8 DSS; drug sensitivity score (UT-SCC-42A [4]; [21]): 5.87 ± 3.6 DSS; drug sensitivity score (UT-SCC-42B [5]; [17]): 17.6 ± 2.3 DSS; drug sensitivity score (UT-SCC-42B [5]; [19]): 9.67 ± 0.84 DSS; drug sensitivity score (UT-SCC-42B [5]; [20]): 1.4 ± 1.4 DSS; drug sensitivity score (UT-SCC-42B [5]; [21]): 3.77 ± 2.9 DSS; drug sensitivity score (UT-SCC-44 [6]; [17]): 18.2 ± 0.7 DSS; drug sensitivity score (UT-SCC-44 [6]; [18]): 4.27 ± 1.7 DSS; drug sensitivity score (UT-SCC-44 [6]; [19]): 12.5 ± 1.8 DSS; drug sensitivity score (UT-SCC-44 [6]; [20]): 5.07 ± 3.6 DSS; drug sensitivity score (UT-SCC-44 [6]; [21]): 10.2 ± 1.6 DSS; drug sensitivity score (UT-SCC-73 [7]; [17]): 19.8 ± 3.1 DSS; drug sensitivity score (UT-SCC-73 [7]; [18]): 15.4 ± 3.3 DSS; drug sensitivity score (UT-SCC-73 [7]; [19]): 18.7 ± 3.7 DSS; drug sensitivity score (UT-SCC-73 [7]; [20]): 14.6 ± 1.9 DSS; drug sensitivity score (UT-SCC-73 [7]; [21]): 16.1 ± 3.1 DSS; drug sensitivity score (UT-SCC-81; [17]): 31.1 ± 6 DSS; drug sensitivity score (UT-SCC-81; [18]): 3.93 ± 0.58 DSS; drug sensitivity score (UT-SCC-81; [19]): 18.2 ± 2.1 DSS; drug sensitivity score (UT-SCC-81; [20]): 4.77 ± 4 DSS; drug sensitivity score (UT-SCC-81; [21]): 7.57 ± 2.1 DSS; drug sensitivity score (UT-SCC-8 [8]; [17]): 9.37 ± 3.3 DSS; drug sensitivity score (UT-SCC-8 [8]; [18]): 3.9 ± 6.8 DSS; drug sensitivity score (UT-SCC-8 [8]; [19]): 6.63 ± 5 DSS; drug sensitivity score (UT-SCC-8 [8]; [20]): 4.7 ± 4 DSS; drug sensitivity score (UT-SCC-8 [8]; [21]): 4.93 ± 4 DSS; relative IC50 (UT-SCC-106A [9]; [17]): 0.942 nM; relative IC50 (UT-SCC-106A [9]; [19]): 1.25 nM; relative IC50 (UT-SCC-106A [9]; [21]): 1.5 nM; relative IC50 (UT-SCC-14 [10]; [17]): 3.5 nM; relative IC50 (UT-SCC-14 [10]; [19]): 7.96 nM; relative IC50 (UT-SCC-14 [10]; [21]): 17.5 nM; relative IC50 (UT-SCC-42A [11]): 3.65 nM; relative IC50 (UT-SCC-42B [12]; [17]): 1.71 nM; relative IC50 (UT-SCC-42B [12]; [19]): 5.67 nM; relative IC50 (UT-SCC-42B [12]; [20]): 12.5 nM; relative IC50 (UT-SCC-44 [13]; [17]): 1.55 nM; relative IC50 (UT-SCC-44 [13]; [19]): 1.52 nM; relative IC50 (UT-SCC-44 [13]; [21]): 1.46 nM; relative IC50 (UT-SCC-73 [14]; [17]): 2.42 nM; relative IC50 (UT-SCC-73 [14]; [20]): 3.31 nM; relative IC50 (UT-SCC-8 [15]): 11.3 nM; relative IC50 (UT-SCC-24A [16]; [17]): 1.4 nM; relative IC50 (UT-SCC-24A [16]; [19]): 1.34 nM; relative IC50 (UT-SCC-24A [16]; [21]): 1.07 nM
